Results reported in patent US20250026789A1, “PEPTIDE HAVING INHIBITORY ACTIVITY AGAINST AMYLOID PRECURSOR PROTEIN AND USE THEREOF” ([…]., priority 2021, published 2025).
Entries after “also recorded” stand apart in the source; their conditions may differ.

Assays:
Type in all cases: cell-based, human
[1] = tested on: amyloid precursor protein (APP); experiment: APP expression by real-time qPCR in SH-SY5Y cells; details: peptide 0.001, 0.01, 0.1, or 1 mM, 24 hours, vs control group without peptide
Method: (§1) In the present example, the effect of inhibiting the expression of APP by peptide treatment was confirmed. To this end, the prepared peptides were added at a concentration of 0.001, 0.01, 0.1, or 1 mM to SH-SY5Y, which is a human neural cell line obtained by isolating cells from the bone marrow of a human having neuroblastoma and proliferating them, and then the cells were cultured for 24 hours. Afterward, total RNA was extracted from the culture, cDNA was synthesized, and real-time quantitative polymerase chain reaction (qPCR) was performed using the APP primers shown in Table 2 below to measure the expression level of amyloid precursor protein (APP). Meanwhile, a group to which no peptide was added was used as a control group, and a group to which a random peptide was added (NRP1: AFMVDNEAIYDICR (SEQ ID NO: 9)) was used as a comparative group.
as §1, with “of amyloid precursor protein” for “of APP”, “real-time qPCR” for “real-time quantitative polymerase chain reaction (qPCR)”, “2 above” for “2 below”, “of APP.” for “of amyloid precursor protein (APP).”

[2] = tested on: ADAM 17; experiment: ADAM 17 expression by real-time qPCR in SH-SY5Y cells; details: peptide 0.001, 0.01, 0.1, or 1 mM, 24 hours, vs control group without peptide
Method: (§2) ADAM 17 is an enzyme that removes APP from the cell membrane surface by cleaving it into a non-toxic fragment, sAPPa. Therefore, the increased expression of ADAM 17 may be used as an indicator of a therapeutic effect on a neurodegenerative disease. Specifically, the prepared peptides were added to SH-SY5Y, a neural cell line, at a concentration of 0.001, 0.01, 0.1, or 1 mM, and cultured at 37° C. and 5% CO2 for 24 hours. Afterward, total RNA was extracted from the culture, cDNA was synthesized, and real-time qPCR was performed using the ADAM 17 primers shown in Table 4 below to measure the expression level of […]. In addition, the prepared peptides were added to SH-SY5Y, a human neural cell line, at a concentration of 0.001, 0.01, 0.1, or 1mM, and cultured at 37° C. and 5% CO2 for 24 hours. Afterward, the expression of ADAM 17 protein from the culture and the expression of sAPPa, which was cleaved from APP by ADAM 17 and ADAM 10 and released, were confirmed through Western blotting using antibodies against each protein. In addition, the distribution of APP on the surface of a nerve cell membrane was analyzed using flow cytometric analysis. Meanwhile, a group to which no peptide was added was used as a control group.
The prepared peptides were added to SH-SY5Y, a neural cell line, at a concentration of 0.001, 0.01, 0.1, or 1 mM, and the cells were cultured at 37° C. and 5% CO2 for 24 hours. Afterward, total RNA was extracted from the culture, cDNA was synthesized, and real-time qPCR was performed using the ADAM 17 primers in Table 4 above to measure the expression level of ADAM 17. Meanwhile, a group to which no peptide was added was used as a control group.

[3] = tested on: IL-10; experiment: IL-10 expression by real-time qPCR in SH-SY5Y cells; details: peptide 0.001, 0.01, 0.1, or 1 mM, 24 hours, vs control group without peptide
Method: In the present example, to confirm the effect inhibiting a neuroinflammatory response by peptide treatment, which is one of the main causes of a neurodegenerative disease, the effect of increasing the expression of IL-10, one of the anti-inflammatory cytokines, was confirmed. Specifically, the prepared peptides were added to SH-SY5Y, a human neural cell line, at a concentration of 0.001, 0.01, 0.1, or 1 mM, and the cells were cultured at 37° C. and 5% CO2 for 24 hours. Afterward, total RNA was extracted from the culture, cDNA was synthesized, and real-time qPCR was performed using the IL-10 primers in Table 6 below to measure the expression level of IL-10. Meanwhile, a group to which no peptide was added was used as a control group.
In the present example to confirm the effect of inhibiting a neuroinflammatory response, which is one of the main causes of a neurodegenerative disease, by peptide treatment, the effect of increasing the expression of IL-10, one of the anti-inflammatory cytokines, was attempted. Specifically, the prepared peptide was added to SH-SY5Y, a human neural cell line, at a concentration of 0.001, 0.01, 0.1, or 1 mM, and the cells were cultured at 37° C. and 5% CO2 for 24 hours. Afterward, total RNA was extracted from the culture, cDNA was synthesized, and real-time qPCR was performed using the IL-10 primers in Table 6 above to measure the expression level of IL-10. Meanwhile, a group to which no peptide was added was used as a control group.

[4] = tested on: Brain Derived Neurotrophic Factor (BDNF); experiment: BDNF expression by real-time qPCR in SH-SY5Y cells; details: peptide 0.001, 0.01, 0.1, or 1 mM, 24 hours, vs control group without peptide
Method: In the present example, to confirm the effect of improving or treating a degenerative neurological disease through the regeneration of the nervous system by peptide treatment, the effect of increasing the expression of Brain Derived Neurotrophic Factor (BDNF) was examined. Specifically, the prepared peptides were added to SH-SY5Y, a human neural cell line, at a concentration of 0.001, 0.01, 0.1, or 1 mM, and the cells were cultured at 37° C. and 5% CO2 for 24 hours. Afterward, total RNA was extracted from the culture, cDNA was synthesized, and real-time qPCR was performed using the BDNF primers shown in Table 8 below to measure the expression level of BDNF. Meanwhile, a group to which no peptide was added was used as a control group.

[5] = tested on: SH-SY5Y; experiment: Neurite growth in SH-SY5Y cells (microscope, length); details: peptide 0.01, 0.1, or 1 mM, 24 hours
Method: In the present example, to confirm the regeneration of neurons by treatment with the peptides, the growth of neurites was confirmed. Specifically, the prepared peptides were added to SH-SY5Y, a human neural cell line, at a concentration of 0.01, 0.1, or 1 mM, and the cells were cultured for 24 hours. Afterward, the grown neurites were confirmed through a microscope, and their length was measured and evaluated.

[6] = tested on: IDE (insulin degrading enzyme); experiment: IDE expression by real-time qPCR in SH-SY5Y cells; details: peptide 0.01, 0.1, or 1 mM, 24 hours, vs control group without peptide
Method: IDE is an enzyme that degrades senile plaques produced and aggregated by beta-amyloid (Ab1-42, 1-40). Therefore, the increased expression of IDE may be used as an indicator of a therapeutic effect of a neurodegenerative disease. Specifically, the prepared peptides were added to SH-SY5Y, a human neural cell line, at a concentration of 0.01, 0.1, or 1 mM, and the cells were cultured at 37° C. and 5% CO2 for 24 hours. Afterward, total RNA was extracted from the culture, cDNA was synthesized, and real-time qPCR was performed using the IDE primers in Table 5 below to measure the expression level of IDE. Meanwhile, a group to which no peptide was added was used as a control group.

[7] = tested on: sAPPa; experiment: sAPPa expression by Western blotting in SH-SY5Y cells; details: peptide 0.001, 0.01, 0.1, or 1 mM, 24 hours, vs control group without peptide
Method: as §2

[8] = tested on: ADAM 17 protein; experiment: ADAM 17 protein expression by Western blotting in SH-SY5Y cells; details: peptide 0.001, 0.01, 0.1, or 1 mM, 24 hours, vs control group without peptide
Method: as §2

[9] = tested on: ADAM 10; experiment: ADAM 10 expression by real-time qPCR in SH-SY5Y cells; details: peptide 0.001, 0.01, 0.1, or 1 mM, 24 hours, vs control group without peptide
Method: ADAM 10 is an alpha-secretase that cleaves APP into a non-toxic fragment and inhibits the production of beta-amyloid (β-amyloid, Ab1-42, 1-40). Therefore, the increased expression of ADAM 10 may be used as an indicator of a therapeutic effect on a neurodegenerative disease. Specifically, the prepared peptides were added to SH-SY5Y, a human neural cell line, at a concentration of 0.001, 0.01, 0.1, or 1 mM, and the cells were cultured at 37° C. and 5% CO2 for 24 hours. Afterwards, total RNA was extracted from the culture, cDNA was synthesized, and real-time qPCR was performed using the ADAM 10 primers shown in Table 3 below to measure the expression level of ADAM 10. Meanwhile, a group to which no peptide was added was used as a control group.

GRILGFSPFR [Peptide-12]
expression of APP [1]: inhibited | expression of ADAM 17 (gene, qPCR) [2]: increased | expression of IL-10 [3]: increased | expression of BDNF [4]: increased; also recorded: more significant

GRPPGFSLAR [Peptide-11]
expression of APP [1]: inhibited | expression of ADAM 17 (gene, qPCR) [2]: increased | expression of IL-10 [3]: increased | expression of BDNF [4]: increased; also recorded: more significant

IKLLSIVAWAKKKI [Peptide-2]
length of the neurites [5]: increased | expression of IDE [6]: increased

INIKVLIAKKIL [Peptide-4]
expression of sAPPa (Western blotting) [7]: increased | expression of APP [1]: inhibited | expression of IDE [6]: increased | expression of ADAM 17 protein (Western blotting) [8]: increased | expression of ADAM 10 [9]: increased | expression of ADAM 17 (gene, qPCR) [2]: increased | expression of IL-10 [3]: increased

INLKALAAKIKIL [Peptide-3]
expression of IDE [6]: increased | expression of ADAM 10 [9]: increased | expression of IL-10 [3]: increased

INLLKIAGKIINIL [Peptide-9]
expression of ADAM 17 (gene, qPCR) [2]: increased | expression of IL-10 [3]: increased; also recorded: more significant | expression of BDNF [4]: increased

INLLKSEGKIIKSL [Peptide-10]
expression of ADAM 17 (gene, qPCR) [2]: increased | expression of BDNF [4]: increased

KALAALAKK [Peptide-8]
expression of APP [1]: inhibited | expression of IDE [6]: increased | expression of ADAM 10 [9]: increased

KALAALAKKIL [Peptide-7]
expression of sAPPa (Western blotting) [7]: increased | expression of APP [1]: inhibited | expression of IDE [6]: increased | expression of ADAM 17 protein (Western blotting) [8]: increased | expression of ADAM 10 [9]: increased | expression of IL-10 [3]: increased

LKLKALAALIKKIL [Peptide-1]
expression of sAPPa (Western blotting) [7]: increased | length of the neurites [5]: increased | expression of APP [1]: inhibited | expression of IDE [6]: increased | expression of ADAM 17 protein (Western blotting) [8]: increased | expression of ADAM 17 (gene, qPCR) [2]: increased | expression of IL-10 [3]: increased

LNIRGLGAKKKI [Peptide-5]
expression of APP [1]: inhibited | expression of IDE [6]: increased | expression of ADAM 10 [9]: increased | expression of IL-10 [3]: increased

LNLRGLAKKKL [Peptide-6]
length of the neurites [5]: increased | expression of IDE [6]: increased
